Data: PMC9814587, “Actinomycetes-derived imine reductases with a preference towards bulky amine substrates” (Communications Chemistry, 2022)

Legend:
[1] = target: T1, IR-G02 (Streptomyces albidoflavus, UniProt Z9MF94CC36); test: X-ray crystallography; type: binding; conditions: co-crystallised with 10 eq NADP+, pH 7.5, 18 °C
T1 construct: N-terminal His6 tag, expressed in E. coli BL21(DE3), Ni-NTA and SEC purified; homodimer with active site at the interface
T1 sequence (Z9MF94CC36 21-319): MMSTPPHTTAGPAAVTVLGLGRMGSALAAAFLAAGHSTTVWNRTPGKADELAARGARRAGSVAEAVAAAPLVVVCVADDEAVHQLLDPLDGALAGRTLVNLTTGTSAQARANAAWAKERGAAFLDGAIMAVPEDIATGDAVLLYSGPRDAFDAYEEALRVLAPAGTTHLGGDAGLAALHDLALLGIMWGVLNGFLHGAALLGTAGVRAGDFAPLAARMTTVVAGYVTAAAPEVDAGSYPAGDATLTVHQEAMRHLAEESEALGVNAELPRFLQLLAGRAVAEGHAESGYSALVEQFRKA

[2] = target: T2, AspRedAm (Aspergillus oryzae, UniProt Q2TW47); test: reductive amination, HPLC or LC-MS conversion; type: biochemical; conditions: 5 mM each, NADP+/GDH/glucose recycling, pH 7.0
T2 construct: gene AO090010000708; N-terminal His tag, expressed in E. coli BL21(DE3), Ni-NTA purified; dimer
T2 sequence (Q2TW47 1-295): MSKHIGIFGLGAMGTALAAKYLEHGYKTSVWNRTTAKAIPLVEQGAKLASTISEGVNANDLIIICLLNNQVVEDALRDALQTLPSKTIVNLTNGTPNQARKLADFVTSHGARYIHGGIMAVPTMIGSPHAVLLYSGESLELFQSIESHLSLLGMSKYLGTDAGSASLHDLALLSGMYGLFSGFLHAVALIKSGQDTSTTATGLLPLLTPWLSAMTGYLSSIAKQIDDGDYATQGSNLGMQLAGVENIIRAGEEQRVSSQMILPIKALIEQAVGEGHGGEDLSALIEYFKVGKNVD

[3] = target: IR-G02 (imine reductase from Streptomyces albidoflavus) (Streptomyces albidoflavus); test: crystal structure; apo IR-G02; sitting-drop vapour diffusion at 18 °C; 0.2 M ammonium acetate, 0.1 M Bis-Tris 5.5, 25 % w/v PEG 3350; protein 20 mg ml^-1

Molecule: NC(=O)c1ccc[n+]([C@@H]2O[C@H](COP(=O)(O)OP(=O)(O)OC[C@H]3O[C@@H](n4cnc5c(N)ncnc54)[C@H](OP(=O)(O)O)[C@@H]3O)[C@@H](O)[C@H]2O)c1 [NADP^+]
- X-ray crystallography [1]: NADP^+ complex of IR-G02 (PDB ID: 7XR5)

Molecule: NC1CC1 [A, cyclopropylamine]
- conversion ([2]; amine donor with cyclohexanone): > 90%

Molecule: O=C1CCCCC1 [compound 1, cyclohexanone]
- conversion ([2]; carbonyl donor with cyclopropylamine): > 90%

Molecule: IR-G02 (imine reductase from Streptomyces albidoflavus) (enzyme)
- stoichiometry N [3]: 2
